Experimental data published in publication PMC9150124, “Design of a Potent, Selective, and Brain-Penetrant Inhibitor of Wnt-Deactivating Enzyme Notum by Optimization of a Crystallographic Fragment Hit” (Journal of Medicinal Chemistry, 2022).
In brackets after ≈: the same amount, converted by molar mass. Several values for one entry are separate records, joined by “and”; a condition that tells them apart may be missing. Identical values can stand only once.

What was measured:
[1] = Stability in mouse liver microsomes; type: in vitro ADME; set-up: MLM Stability Cli mean: unit not given here; details: for half-life: mouse, liver microsomes, read-out: MLM Stability t1/2
[2] = Aqueous solubility in PBS (pH 7.4); type: physicochemical; details: for solubility: PBS pH 7.4, read-out: aq. solubility; for solubility thermodynamic: PBS, pH 7.4, n = 2, read-out: Thermodynamic Solubility @ RT, mean
Text: (§1) Biosciences (Hyderabad, India) or WuXi AppTec (Shanghai, China).
(§2) Table S1: Representative assay protocol

[3] = Distribution coefficient LogD7.4 (shake flask); type: physicochemical; details: for logD at 1 h: 1-octanol/10 mM phosphate buffer, pH 7.4, octanol/buffer
Method: Molecular properties (MW, clogP, and TPSA) were calculated with ChemDraw Professional v16.0.1.4(77). Distribution coefficients (LogD7.4) were measured using the shake flask method.
as §1
A. Distribution coefficient (LogD7.4):
as §2
Octanol/buffer partition coefficient. 500 µL of organic phase (1-octanol) was added to each well of a 2 mL deep well plate, followed by 500 µL of buffer and 15 µL of test substance was added. The plate was vortexed for 1 hr on a plate shaker at 1200 Method rpm. After incubation, the samples were allowed to equilibrate for 20 min and then centrifuged at 4000 rpm for 30 min for complete phase separation and analysed by […]
Buffer 10 mM phosphate buffer
Test compound concentration 0.15 mM
End Point Fractional distribution of test compound between octanol and buffer […]
B. Aqueous solubility at pH 7.4:
Thermodynamic Solubility @ RT

[4] = Stability in human liver microsomes; type: in vitro ADME; set-up: HLM Stability Cli mean: unit not given here; details: for half-life: human, liver microsomes, read-out: HLM Stability t1/2
in vitro = details: dog
P-gp (MDR1) = assay: in vitro; details: dog
MDR1 (P-gp) = assay: in vitro; details: dog
in vivo = assay: in vivo; set-up: species or system mouse; details: mouse, p.o. 10 mg/kg
Method: Mouse pharmacokinetic (PK) data was generated at Charles River Laboratories (Groningen, Netherlands) and GVK
Biosciences (Hyderabad, India). Rat PK was performed by WuXi AppTec (Shanghai, China).
Animal Testing Declaration: All in life phase studies were conducted in accordance with local Ethics Review
process. See, statements from each company.

[5] = target: T1, human Notum (81–451 Cys330Ser) (Homo sapiens, UniProt Q6P988, C330S); assay: Notum OPTS biochemical assay
T1 construct: human Notum (81–451 Cys330Ser) as the enzyme; made in house
T1 sequence (Q6P988 81-451 C330S): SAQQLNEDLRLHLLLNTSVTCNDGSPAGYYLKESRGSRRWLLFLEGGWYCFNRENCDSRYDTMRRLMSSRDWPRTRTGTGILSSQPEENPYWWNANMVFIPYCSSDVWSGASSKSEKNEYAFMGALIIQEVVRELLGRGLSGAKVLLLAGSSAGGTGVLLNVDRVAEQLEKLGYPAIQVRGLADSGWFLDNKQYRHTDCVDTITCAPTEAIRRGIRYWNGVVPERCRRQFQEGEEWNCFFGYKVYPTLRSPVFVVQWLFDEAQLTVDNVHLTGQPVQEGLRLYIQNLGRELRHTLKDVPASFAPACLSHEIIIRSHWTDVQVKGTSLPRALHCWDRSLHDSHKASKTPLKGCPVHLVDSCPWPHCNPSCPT
Text: The optimization of 6 to deliver this profile was directed at three principle areas of these hit structures: (1) aryl ring 7 (Table 1); (2) the C4 substituent on triazole 8 (Table 2); and (3) further fine-tuning of the triazole 9 (Table 3). […] This assay was used to establish SAR and to identify preferred leads for additional studies.
Methods have been described in detail elsewhere.[23]−[26] Representative concentration–response curves are provided in the Supporting Information.

[6] = Metabolic stability in mouse hepatocytes
[7] = Brain tissue binding, rapid equilibrium dialysis; type: in vitro ADME, rat
Method: Method: rapid equilibrium dialysis.
Test System Mouse Brain Homogenate 10% w/v in PBS
Incubation Time 5 h (mouse) or 4 h (rat)
No. of Replicates Two (mouse) or three (rat)
Buffer Phosphate buffer saline, pH 7.4
% Unbound in brain % Bound in brain %
Compound Species / Matrix homogenate SD homogenate Recovery

[8] = mouse PK, comparable study; cited from earlier work
[9] = MDCK-MDR1, MDCK-MDR1 AB Papp, apical to basal
[10] = MDCK-MDR1, MDCK-MDR1 BA Papp, basal to apical
[11] = MDCK-MDR1, MDR1-MDCKII A to B % Recovery
[12] = MDCK-MDR1, MDR1-MDCKII B to A % Recovery

## OCc1cn(-c2ccc(Cl)c(Cl)c2)nn1 [6b, ((3,4-Dichlorophenyl)-1H-1,2,3-triazol-4-yl)methanol]
[1]
  MLM Cli: 88 μL/min/mg protein
[1]; Table S4
  half-life: 0.263 h
[2]
  solubility: 100 µg/mL (≈ 410 µM)
  solubility thermodynamic: 104 µg/mL (≈ 426 µM)
[3]
  logD at 1 h: 2.41
[3]; octanol/buffer, pH 7.4
  LogD7.4: 2.4
[4]
  HLM Cli: 12 μL/min/mg protein
[4]; Table S4
  half-life: 1.92 h
In vitro; [9]
  Papp: 57 ×10⁻⁶ cm/s
In vitro; [10]
  Papp: 59 ×10⁻⁶ cm/s
P-gp (MDR1); [9]
  Papp: 56.6 ×10⁻⁶ cm/s
P-gp (MDR1); [10]
  Papp: 58.3 ×10⁻⁶ cm/s
MDR1 (P-gp); [11]
  recovery: 80.7%
MDR1 (P-gp); [12]
  recovery: 87.2%

## OCc1cn(-c2ccc(Cl)c(C(F)(F)F)c2Cl)nn1 [7y, ((2,4-Dichloro-3-(trifluoromethyl)phenyl)-1H-1,2,3-triazol-4-yl)methanol]
[1]
  MLM Cli: 6.7 μL/min/mg protein
[1]; Table S4
  MLM Stability Cli mean: 6.65
  half-life: 1.75 h
[2]
  solubility: 210 µg/mL and 680 µM
  solubility thermodynamic: 213 µg/mL (≈ 683 µM)
In vivo; male, C57/BL6, brain and plasma, po, AUC0–inf brain/plasma, total drug, read-out: brain-to-plasma ratio (Kp)
  Kp: 1.2
In vivo; plasma
  AUC0–inf: 150 ng·h/mL
  Cmax: 300 ng/mL
[4]
  HLM Cli: 1.7 μL/min/mg protein
[4]; Table S4
  HLM Stability Cli mean: 1.65
  half-life: 9.21 h
In vitro; [9]
  Papp: 46 ×10⁻⁶ cm/s
In vitro; [10]
  Papp: 28 ×10⁻⁶ cm/s
P-gp (MDR1); [9]
  Papp: 45.9 ×10⁻⁶ cm/s
P-gp (MDR1); [10]
  Papp: 27.8 ×10⁻⁶ cm/s
P-gp (MDR1); MDCK-MDR1, MDCK-MDR1 efflux ratio (ER)
  efflux ratio: 0.61
MDR1 (P-gp); [11]
  recovery: 94.1%
MDR1 (P-gp); [12]
  recovery: 97.5%
[5]
  fold more active than hit 6b: 50 fold
  fold more active than unsubstituted phenyl 7a: 10,000 fold
[5]; OPTS substrate, mean, read-out: Notum IC50
  IC50: 9.5 ± 0.2 nM
[6]
  mouse hepatocytes Cli: 48 μL/min/10^6 cells
[6]; mouse, hepatocytes
  half-life: 0.598 h

## COCCc1ccc(OCC(O)CNC(C)C)cc1 (stereo not drawn) [Metoprolol, reference compound]
[3]
  logD at 1 h: -0.27

## CC(C)NCC(O)COc1cccc2ccccc12 (stereo not drawn) [Propranolol, reference compound]
[7]; brain homogenate, pH 7.4, SD rat, 4 h
  fraction unbound at 4 h, 2 µM: 0.026
[7]; pH 7.4, SD rat brain homogenate
  recovery at 4 h, 2 µM: 78.2%
[7]; rat brain homogenate
  Brain binding, % bound: 97.4%

## Cc1c(C(F)(F)F)oc2ncnc(SCC(=O)N3CC(=O)N(C)C3)c12 [compound 3]
[8]
  brain-to-plasma ratio Kp: 0.29
